This note sets out measurements from PubChem BioAssay AID256 (DTP/NCI, 2004).

The test system of the experiment is CD2F1 mice, L1210 leukemia ip, survival T/C. In words: NCI In Vivo Anticancer Drug Screen. Data for tumor model L1210 Leukemia (intraperitoneal) in CD2F1 (CDF1) mice. The settings on record: higher = longer survival. Put shortly:
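Transplantable tumor in mice; compound-treated vs vehicle-treated groups. Read-out = treated/control ratio of the measured endpoint.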

Setting [1] is: endpoint: mean survival time, dose: 100.0 mg/kg/injection, schedule: Q04DX003 (ip), vehicle: saline with Tween-80.
Where [2] appears, read: endpoint: mean survival time, dose: 200.0 mg/kg/injection, schedule: Q04DX003 (ip), vehicle: saline with Tween-80.
Where [3] appears, read: endpoint: mean survival time, dose: 400.0 mg/kg/injection, schedule: Q04DX003 (ip), vehicle: saline with Tween-80.
The mark [4] stands for this setting: endpoint: mean survival time, dose: 100.0 mg/kg/injection, schedule: Q01DX009 (ip), vehicle: saline with Tween-80.
[5] abbreviates: endpoint: mean survival time, dose: 200.0 mg/kg/injection, schedule: Q01DX009 (ip), vehicle: saline with Tween-80.
Setting [6] is: endpoint: mean survival time, dose: 400.0 mg/kg/injection, schedule: Q01DX009 (ip), vehicle: saline with Tween-80.

Structures are written as SMILES. Several values for one entry are separate records, joined by “and”; a condition that tells them apart may be missing. Identical values can stand only once. Toxic doses and inconclusive results are not listed.

Take `CC[C@@]1(O)C(=O)OCc2c1cc1n(c2=O)Cc2cc3c(OC)cccc3nc2-1`: the T/C runs as follows: (endpoint: mean survival time, dose: 0.13 mg/kg/injection, schedule: Q01DX009 (ip), vehicle: saline with Tween-80) 105 % of control; (endpoint: mean survival time, dose: 0.25 mg/kg/injection, schedule: Q01DX009 (ip), vehicle: saline with Tween-80) 111 % of control; (endpoint: mean survival time, dose: 1.0 mg/kg/injection, schedule: Q01DX009 (ip), vehicle: saline with Tween-80) 101 % of control; (endpoint: mean survival time, dose: 1.0 mg/kg/injection, schedule: Q04DX003 (ip), vehicle: other) 105 % of control; (endpoint: mean survival time, dose: 1.56 mg/kg/injection, schedule: Q01DX009 (ip), vehicle: saline with Tween-80) 157 % of control; (endpoint: mean survival time, dose: 2.0 mg/kg/injection, schedule: Q04DX003 (ip), vehicle: other) 155 % of control. In addition, the T/C (endpoint: mean survival time, dose: 2.25 mg/kg/injection, schedule: Q01DX009 (ip), vehicle: saline) is 158 % of control; the T/C (endpoint: mean survival time, dose: 3.13 mg/kg/injection, schedule: Q01DX009 (ip), vehicle: saline with Tween-80) was 86 % of control; the T/C (endpoint: mean survival time, dose: 3.8 mg/kg/injection, schedule: Q04DX003 (ip), vehicle: water) is 154 % of control; the T/C (endpoint: mean survival time, dose: 4.0 mg/kg/injection, schedule: Q04DX003 (ip), vehicle: other) is 153 % of control; the T/C (endpoint: mean survival time, dose: 7.5 mg/kg/injection, schedule: Q04DX003 (ip), vehicle: water) was 90 % of control; the T/C (endpoint: mean survival time, dose: 8.0 mg/kg/injection, schedule: Q04DX003 (ip), vehicle: other) is 164 % of control.

As to `[NH-]c1ccccc1C(=O)O.[NH-]c1ccccc1C(=O)O.[Ni+2]`, the T/C by setting is: under setting [1], 93 % of control; under setting [2], 107 % of control.

Take `CCCNC1=C(C)C(=O)C2=C(C1=O)[C@H](COC(N)=O)[C@]1(OC)[C@@H]3N[C@@H]3CN21`: the T/C (endpoint: mean survival time, dose: 10.2 mg/kg/injection, schedule: Q01DX001 (ip), vehicle: saline) is 108 % of control; the T/C (endpoint: mean survival time, dose: 15.5 mg/kg/injection, schedule: Q01DX001 (ip), vehicle: saline) was 112 % of control; the T/C (endpoint: mean survival time, dose: 23.2 mg/kg/injection, schedule: Q01DX001 (ip), vehicle: saline) was 120 % of control; the T/C (endpoint: median survival time, dose: 0.39 mg/kg/injection, schedule: Q01DX009 (ip), vehicle: suspension in saline) is 93 % of control; the T/C (endpoint: median survival time, dose: 0.78 mg/kg/injection, schedule: Q01DX009 (ip), vehicle: saline) was 112 % of control; the T/C (endpoint: median survival time, dose: 0.78 mg/kg/injection, schedule: Q01DX009 (ip), vehicle: suspension in saline) was 93 % of control. Also, the T/C (endpoint: median survival time, dose: 1.56 mg/kg/injection, schedule: Q01DX009 (ip), vehicle: saline) is 117 % of control; the T/C (endpoint: median survival time, dose: 1.56 mg/kg/injection, schedule: Q01DX009 (ip), vehicle: suspension in saline) is 102 % of control; the T/C (endpoint: median survival time, dose: 3.12 mg/kg/injection, schedule: Q01DX009 (ip), vehicle: suspension in saline) is 102 % of control; the T/C (endpoint: median survival time, dose: 6.25 mg/kg/injection, schedule: Q01DX009 (ip), vehicle: saline) is 166 % of control; the T/C (endpoint: median survival time, dose: 6.25 mg/kg/injection, schedule: Q01DX009 (ip), vehicle: suspension in saline) was 104 % of control; the T/C (endpoint: median survival time, dose: 12.5 mg/kg/injection, schedule: Q01DX009 (ip), vehicle: saline) was 100 % of control. For the same molecule, the T/C (endpoint: median survival time, dose: 12.5 mg/kg/injection, schedule: Q01DX009 (ip), vehicle: suspension in saline) was 112 % of control.

Take `C[NH-].C[NH-].[Br][Pt][Br].[CH3-].[CH3-]`: the T/C (endpoint: mean survival time, dose: 1.56 mg/kg/injection, schedule: Q04DX003 (ip), vehicle: saline with Tween-80) is 97 % of control; the T/C (endpoint: mean survival time, dose: 3.13 mg/kg/injection, schedule: Q04DX003 (ip), vehicle: saline with Tween-80) was 97 % of control; the T/C (endpoint: mean survival time, dose: 6.25 mg/kg/injection, schedule: Q04DX003 (ip), vehicle: saline with Tween-80) was 104 % of control; the T/C (endpoint: mean survival time, dose: 12.5 mg/kg/injection, schedule: Q04DX003 (ip), vehicle: saline with Tween-80) was 93 % of control; the T/C (endpoint: mean survival time, dose: 25.0 mg/kg/injection, schedule: Q04DX003 (ip), vehicle: saline with Tween-80) was 89 % of control and 93 % of control; the T/C (endpoint: mean survival time, dose: 50.0 mg/kg/injection, schedule: Q04DX003 (ip), vehicle: saline with Tween-80) was 102 % of control. The T/C under setting [1] is 100 % of control, the T/C under setting [2] was 98 % of control and the T/C under setting [3] was 94 % of control.

For the molecule `CC12C(=O)C=CCC1=CCC1C2CCC2(O)C(=O)OC3(C)C4CC5(C)C(COC16OC23C5C6=O)C(=O)O4` (stereo not given), the T/C is, setting by setting: (endpoint: median survival time, dose: 25.0 mg/kg/injection, schedule: Q01DX009 (ip), vehicle: Klucel (hydroxypropylcellulose) (HPC)) 102 % of control; (endpoint: median survival time, dose: 50.0 mg/kg/injection, schedule: Q01DX009 (ip), vehicle: Klucel (hydroxypropylcellulose) (HPC)) 96 % of control; (endpoint: median survival time, dose: 100.0 mg/kg/injection, schedule: Q01DX009 (ip), vehicle: Klucel (hydroxypropylcellulose) (HPC)) 100 % of control; (endpoint: median survival time, dose: 200.0 mg/kg/injection, schedule: Q01DX009 (ip), vehicle: Klucel (hydroxypropylcellulose) (HPC)) 108 % of control.

Take `Cc1cc(N(C)C)c(C(C)C)cc1O` (tested in a mixture with another compound): the T/C was 104 % of control (endpoint: mean survival time, dose: 32.0 micrograms/kg/injection, schedule: Q04DX003 (ip), vehicle: saline); 112 % of control (endpoint: mean survival time, dose: 63.0 micrograms/kg/injection, schedule: Q01DX001 (ip), vehicle: saline); 98 % of control (endpoint: mean survival time, dose: 63.0 micrograms/kg/injection, schedule: Q04DX003 (ip), vehicle: saline); 112 % of control (endpoint: mean survival time, dose: 125.0 micrograms/kg/injection, schedule: Q01DX001 (ip), vehicle: saline); 101 % of control (endpoint: mean survival time, dose: 125.0 micrograms/kg/injection, schedule: Q04DX003 (ip), vehicle: saline).

For the molecule `O=C1OCC(Cl)=C1Cl`, the T/C runs as follows: (endpoint: mean survival time, dose: 6.25 mg/kg/injection, schedule: Q01DX009 (ip), vehicle: saline with Tween-80) 96 % of control; (endpoint: mean survival time, dose: 12.5 mg/kg/injection, schedule: Q01DX009 (ip), vehicle: saline with Tween-80) 94 % of control; (endpoint: mean survival time, dose: 25.0 mg/kg/injection, schedule: Q01DX009 (ip), vehicle: saline with Tween-80) 98 % of control.

Turning to `CC(C)C1(C)NC(=O)NC1=O` (stereo not given), the T/C reads like this: (endpoint: mean survival time, dose: 100.0 mg/kg/injection, schedule: Q01DX009 (ip), vehicle: saline) 105 % of control; (endpoint: mean survival time, dose: 200.0 mg/kg/injection, schedule: Q01DX009 (ip), vehicle: saline) 94 % of control; (endpoint: mean survival time, dose: 400.0 mg/kg/injection, schedule: Q01DX009 (ip), vehicle: saline) 98 % of control.

In the case of `O=C1NC2(CCCC2)C(=O)N2CCCC12` (stereo not given), the T/C is 93 % of control (endpoint: mean survival time, dose: 50.0 mg/kg/injection, schedule: Q04DX003 (ip), vehicle: Klucel (hydroxypropylcellulose) (HPC)); 93 % of control (endpoint: mean survival time, dose: 100.0 mg/kg/injection, schedule: Q04DX003 (ip), vehicle: Klucel (hydroxypropylcellulose) (HPC)); 97 % of control (endpoint: mean survival time, dose: 200.0 mg/kg/injection, schedule: Q04DX003 (ip), vehicle: Klucel (hydroxypropylcellulose) (HPC)).

Take `O=C1NC(=O)C(c2ccccc2)(c2ccc(O)cc2)N1` (stereo not given): the T/C under setting [4] is 105 % of control; the T/C (endpoint: mean survival time, dose: 100.0 mg/kg/injection, schedule: Q04DX003 (ip), vehicle: saline sonified) was 95 % of control; the T/C under setting [5] is 95 % of control; the T/C (endpoint: mean survival time, dose: 200.0 mg/kg/injection, schedule: Q04DX003 (ip), vehicle: saline sonified) was 93 % of control; the T/C under setting [6] is 95 % of control; the T/C (endpoint: mean survival time, dose: 400.0 mg/kg/injection, schedule: Q04DX003 (ip), vehicle: saline sonified) is 93 % of control.

On to `NCC1CCCC1N` (stereo not given), for which the T/C runs as follows: (endpoint: mean survival time, dose: 18.8 mg/kg/injection, schedule: Q01DX001 (ip), vehicle: saline) 114 % of control; (endpoint: mean survival time, dose: 18.8 mg/kg/injection, schedule: Q04DX003 (ip), vehicle: saline) 101 % of control; (endpoint: mean survival time, dose: 37.5 mg/kg/injection, schedule: Q01DX001 (ip), vehicle: saline) 108 % of control; (endpoint: mean survival time, dose: 37.5 mg/kg/injection, schedule: Q04DX003 (ip), vehicle: saline) 101 % of control; (endpoint: mean survival time, dose: 75.0 mg/kg/injection, schedule: Q01DX001 (ip), vehicle: saline) 103 % of control; (endpoint: mean survival time, dose: 75.0 mg/kg/injection, schedule: Q04DX003 (ip), vehicle: saline) 104 % of control.

On to `O=[N+]([O-])c1ccc2c(c1)C(Br)c1cc(Br)ccc1-2` (stereo not given), for which the T/C under setting [4] is 93 % of control; the T/C under setting [1] is 100 % of control; the T/C under setting [5] was 88 % of control; the T/C under setting [2] is 100 % of control; the T/C under setting [6] is 90 % of control; the T/C under setting [3] was 92 % of control.

With `CC(C)(C)CC1(C)NC(=O)NC1=O` (stereo not given), the T/C reads like this: (endpoint: mean survival time, dose: 100.0 mg/kg/injection, schedule: Q01DX001 (ip), vehicle: saline) 100 % of control; (endpoint: mean survival time, dose: 200.0 mg/kg/injection, schedule: Q01DX001 (ip), vehicle: saline) 97 % of control; (endpoint: mean survival time, dose: 400.0 mg/kg/injection, schedule: Q01DX001 (ip), vehicle: saline) 100 % of control.
